From PubChem BioAssay (NCI)
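The concentration for 50% growth inhibition is given as GI50. At the TGI there is no net growth.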

Legend:
Assay in all cases: growth of human tumour cells (NCI), 384-well format
[1] = tested on: 786-0 renal
[2] = tested on: A498 renal
[3] = tested on: A549 NSCLC
[4] = tested on: ACHN renal
[5] = tested on: BT-549 breast
[6] = tested on: CAKI-1 renal
[7] = tested on: CCRF-CEM leukemia
[8] = tested on: COLO 205 colon
[9] = tested on: DU-145 prostate
[10] = tested on: EKVX NSCLC
[11] = tested on: HCC-2998 colon
[12] = tested on: HCT-15 colon
[13] = tested on: HL-60(TB) leukemia
[14] = tested on: HOP-62 NSCLC
[15] = tested on: HOP-92 NSCLC
[16] = tested on: HS 578T breast
[17] = tested on: HT29 colon
[18] = tested on: IGROV1 ovarian
[19] = tested on: KM12 colon
[20] = tested on: M14 melanoma
[21] = tested on: MALME-3M melanoma
[22] = tested on: MCF7 breast
[23] = tested on: MDA-MB-231 breast
[24] = tested on: MDA-MB-435 melanoma
[25] = tested on: MDA-MB-468 breast
[26] = tested on: MOLT-4 leukemia
[27] = tested on: NCI-H226 lung
[28] = tested on: NCI-H23 lung
[29] = tested on: NCI-H322M lung
[30] = tested on: NCI-H460 NSCLC
[31] = tested on: NCI-H522 lung
[32] = tested on: NCI/ADR-RES ovarian
[33] = tested on: OVCAR-3 ovarian
[34] = tested on: OVCAR-4 ovarian
[35] = tested on: OVCAR-5 ovarian
[36] = tested on: OVCAR-8 ovarian
[37] = tested on: PC-3 prostate
[38] = tested on: RPMI-8226 leukemia
[39] = tested on: RXF 393 renal
[40] = tested on: SF-268 CNS
[41] = tested on: SF-295 CNS
[42] = tested on: SF-539 CNS
[43] = tested on: SK-MEL-2 melanoma
[44] = tested on: SK-MEL-28 melanoma
[45] = tested on: SK-MEL-5 melanoma
[46] = tested on: SK-OV-3 ovarian
[47] = tested on: SN12C renal
[48] = tested on: SNB-19 CNS
[49] = tested on: SNB-75 CNS
[50] = tested on: SR leukemia
[51] = tested on: SW-620 colon
[52] = tested on: T-47D breast
[53] = tested on: TK-10 renal
[54] = tested on: U251 glioblastoma
[55] = tested on: UACC-257 melanoma
[56] = tested on: UACC-62 melanoma

NCC(=O)CCC(=O)O
GI50 [1]: > 100 µM | TGI [1]: > 100 µM | GI50 [2]: > 100 µM | TGI [2]: > 100 µM | GI50 [3]: > 100 µM | TGI [3]: > 100 µM | GI50 [4]: > 100 µM | TGI [4]: > 100 µM | GI50 [5]: > 100 µM | TGI [5]: > 100 µM | GI50 [6]: > 100 µM | TGI [6]: > 100 µM | GI50 [7]: 62.4 µM | TGI [7]: > 100 µM | GI50 [8]: > 100 µM | TGI [8]: > 100 µM | GI50 [9]: > 100 µM | TGI [9]: > 100 µM | GI50 [10]: > 100 µM | TGI [10]: > 100 µM | GI50 [11]: > 100 µM | TGI [11]: > 100 µM | GI50 [12]: > 100 µM | TGI [12]: > 100 µM | GI50 [13]: > 100 µM | TGI [13]: > 100 µM | GI50 [14]: > 100 µM | TGI [14]: > 100 µM | GI50 [15]: > 100 µM | TGI [15]: > 100 µM | GI50 [16]: > 100 µM | TGI [16]: > 100 µM | GI50 [17]: > 100 µM | TGI [17]: > 100 µM | GI50 [18]: > 100 µM | TGI [18]: > 100 µM | GI50 [19]: > 100 µM | TGI [19]: > 100 µM | GI50 [20]: > 100 µM | TGI [20]: > 100 µM | GI50 [21]: > 100 µM | TGI [21]: > 100 µM | GI50 [22]: > 100 µM | TGI [22]: > 100 µM | GI50 [23]: > 100 µM | TGI [23]: > 100 µM | GI50 [24]: > 100 µM | TGI [24]: > 100 µM | GI50 [25]: 26.7 µM | TGI [25]: 74.7 µM | GI50 [26]: 73.2 µM | TGI [26]: > 100 µM | GI50 [27]: > 100 µM | TGI [27]: > 100 µM | GI50 [28]: > 100 µM | TGI [28]: > 100 µM | GI50 [29]: > 100 µM | TGI [29]: > 100 µM | GI50 [30]: > 100 µM | TGI [30]: > 100 µM | GI50 [31]: > 100 µM | TGI [31]: > 100 µM | GI50 [32]: > 100 µM | TGI [32]: > 100 µM | GI50 [33]: > 100 µM | TGI [33]: > 100 µM | GI50 [34]: 62.9 µM | TGI [34]: > 100 µM | GI50 [35]: > 100 µM | TGI [35]: > 100 µM | GI50 [36]: > 100 µM | TGI [36]: > 100 µM | GI50 [37]: > 100 µM | TGI [37]: > 100 µM | GI50 [38]: > 100 µM | TGI [38]: > 100 µM | GI50 [39]: > 100 µM | TGI [39]: > 100 µM | GI50 [40]: > 100 µM | TGI [40]: > 100 µM | GI50 [41]: > 100 µM | TGI [41]: > 100 µM | GI50 [42]: > 100 µM | TGI [42]: > 100 µM | GI50 [43]: > 100 µM | TGI [43]: > 100 µM | GI50 [44]: > 100 µM | TGI [44]: > 100 µM | GI50 [45]: > 100 µM | TGI [45]: > 100 µM | GI50 [46]: 45.2 µM | TGI [46]: > 100 µM | GI50 [47]: > 100 µM | TGI [47]: > 100 µM | GI50 [48]: > 100 µM | TGI [48]: > 100 µM | GI50 [49]: > 100 µM | TGI [49]: > 100 µM | GI50 [50]: > 100 µM | TGI [50]: > 100 µM | GI50 [51]: > 100 µM | TGI [51]: > 100 µM | GI50 [52]: > 100 µM | TGI [52]: > 100 µM | GI50 [53]: > 100 µM | TGI [53]: > 100 µM | GI50 [54]: > 100 µM | TGI [54]: > 100 µM | GI50 [55]: > 100 µM | TGI [55]: > 100 µM | GI50 [56]: > 100 µM | TGI [56]: > 100 µM
